Measurements taken from patent publication US11446287B2, “Compounds and methods for EP300 or CBP modulation and indications therefor” (Opna Immuno-Oncology SA, priority 2019, dated 2022).

What follows are compounds tested against T1, Recombinant human EP300 containing the bromodomain (EP300-BD (1040-1161)) (Homo sapiens, UniProt Q09472) (assay: EP300 Alphascreen binding assay).
T1 construct: Recombinant human EP300 bromodomain (EP300-BD (1040-1161)); made in house; host or cells: E. coli BL21-CodonPlus (DE3), modified pET vector
T1 sequence (Q09472 1040-1161): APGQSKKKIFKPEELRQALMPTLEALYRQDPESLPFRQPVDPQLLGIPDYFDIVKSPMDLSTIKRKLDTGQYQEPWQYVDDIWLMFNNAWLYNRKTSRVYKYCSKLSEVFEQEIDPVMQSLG
Method in brief: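 Displacement of a biotinylated acetyl-K56 histone H3 peptide from the N-His bromodomain construct (1040-1161) measured by AlphaScreen proximity, beads at 7.5 μg/ml final, read 60 min after addition. Protein, peptide and compound first incubated 1 h at room temperature, pH 7.5 HEPES buffer; IC50 by four-parameter logistic fit.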
Compound CCOc1cc(C(=O)O)nc(OCC)c1-c1cn(-c2cccnc2)c2ncc(-c3c(C)noc3C)cc12 [P-0436, 5-(5-(3,5-dimethylisoxazol-4-yl)-1-(pyridin-3-yl)-1H-pyrrolo[2,3-b]pyridin-3-yl)-4,6-diethoxypicolinic acid] has an IC50 of 0.1 to 1000 nM.
Work on Cc1noc(C)c1-c1cnc2c(c1)c(-c1ccc(CC(=O)O)cc1F)cn2-c1ccc(F)cc1F [P-0437] yielded an IC50 of 0.1 to 1000 nM.
Work on Cc1noc(C)c1-c1cnc2c(c1)c(-c1ccc(CC(=O)O)cc1)cn2-c1ccc(F)cc1F [P-0438, 2-(4-(1-(2,4-difluorophenyl)-5-(3,5-dimethylisoxazol-4-yl)-1H-pyrrolo[2,3-b]pyridin-3-yl)phenyl)acetic acid] yielded an IC50 of 0.1 to 1000 nM.
Compound Cc1noc(C)c1-c1cnc2c(c1)c(-c1c(Cl)cc(C(=O)O)cc1OC(F)(F)F)cn2-c1cccnn1 [P-0439, 3-chloro-4-(5-(3,5-dimethylisoxazol-4-yl)-1-(pyridazin-3-yl)-1H-pyrrolo[2,3-b]pyridin-3-yl)-5-(trifluoromethoxy)benzoic acid] has an IC50 of 0.1 to 1000 nM.
COC(=O)c1cc(Cl)c(-c2cn(-c3ccc(C4CC4)nc3)c3ncc(-c4c(C)noc4C)cc23)c(OC(F)(F)F)c1 [P-0440, methyl 3-chloro-4-(1-(6-cyclopropylpyridin-3-yl)-5-(3,5-dimethylisoxazol-4-yl)-1H-pyrrolo[2,3-b]pyridin-3-yl)-5-(trifluoromethoxy)benzoate] showed an IC50 of 1000 to 8000 nM.
In the case of Cc1noc(C)c1-c1cnc2c(c1)c(-c1c(Cl)cc(C(=O)O)cc1OC(F)(F)F)cn2-c1ccc(C2CC2)nc1 [P-0441, 3-chloro-4-(1-(6-cyclopropylpyridin-3-yl)-5-(3,5-dimethylisoxazol-4-yl)-1H-pyrrolo[2,3-b]pyridin-3-yl)-5-(trifluoromethoxy)benzoic acid], the IC50 is reported as 0.1 to 1000 nM.
CCOc1cc(C(=O)O)c(F)cc1-c1cn(C2CCN(C(=O)OC(C)(C)C)CC2)c2ncc(-c3c(C)noc3C)cc12 [P-0442, 4-(1-(1-(tert-butoxycarbonyl)piperidin-4-yl)-5-(3,5-dimethylisoxazol-4-yl)-1H-pyrrolo[2,3-b]pyridin-3-yl)-5-ethoxy-2-fluorobenzoic acid] gave an IC50 of 0.1 to 1000 nM.
COc1ccc(CC(=O)O)cc1-c1cn(-c2ccc(F)cc2F)c2ncc(-c3c(C)noc3C)cc12 [P-0443, 2-(3-(1-(2,4-difluorophenyl)-5-(3,5-dimethylisoxazol-4-yl)-1H-pyrrolo[2,3-b]pyridin-3-yl)-4-methoxyphenyl)acetic acid] showed an IC50 of 0.1 to 1000 nM.
With Cc1noc(C)c1-c1cnc2c(c1)c(-c1cc(F)c(C(=O)O)cc1OC(F)(F)F)cn2-c1ccc(C2CC2)nc1 [P-0444, 4-(1-(6-cyclopropylpyridin-3-yl)-5-(3,5-dimethylisoxazol-4-yl)-1H-pyrrolo[2,3-b]pyridin-3-yl)-2-fluoro-5-(trifluoromethoxy)benzoic acid] the IC50 was 0.1 to 1000 nM.
CCOc1cc(C(=O)O)c(F)cc1-c1cn(C2CCN(C(=O)C(C)(C)C)CC2)c2ncc(-c3c(C)noc3C)cc12 [P-0445, 4-(5-(3,5-dimethylisoxazol-4-yl)-1-(1-pivaloylpiperidin-4-yl)-1H-pyrrolo[2,3-b]pyridin-3-yl)-5-ethoxy-2-fluorobenzoic acid] was tested, and the IC50 was 0.1 to 1000 nM.
CCOc1cc(C(=O)O)c(F)cc1-c1cn(C2CCN(CCC#N)CC2)c2ncc(-c3c(C)noc3C)cc12 [P-0446, 4-(1-(1-(2-cyanoethyl)piperidin-4-yl)-5-(3,5-dimethylisoxazol-4-yl)-1H-pyrrolo[2,3-b]pyridin-3-yl)-5-ethoxy-2-fluorobenzoic acid] showed an IC50 of 0.1 to 1000 nM.
In the case of CCOc1cc(C(=O)O)c(F)cc1-c1cn(C2CCN(C(=O)CO)CC2)c2ncc(-c3c(C)noc3C)cc12 [P-0447, 4-(5-(3,5-dimethylisoxazol-4-yl)-1-(1-(2-hydroxyacetyl)piperidin-4-yl)-1H-pyrrolo[2,3-b]pyridin-3-yl)-5-ethoxy-2-fluorobenzoic acid], the IC50 is reported as 0.1 to 1000 nM.
Work on CCc1onc(C)c1-c1cnc2c(c1)c(-c1c(Cl)cc(C(=O)O)cc1OC(F)(F)F)cn2-c1ccc(C2CC2)nc1 [P-0448, 3-chloro-4-(1-(6-cyclopropylpyridin-3-yl)-5-(5-ethyl-3-methylisoxazol-4-yl)-1H-pyrrolo[2,3-b]pyridin-3-yl)-5-(trifluoromethoxy)benzoic acid] yielded an IC50 of 0.1 to 1000 nM.
Cc1nnn(C)c1-c1cnc2c(c1)c(-c1cccc(C(=O)O)c1)cn2[C@@H](C)c1ccccn1 [P-0449, (S)-3-(5-(1,4-dimethyl-1H-1,2,3-triazol-5-yl)-1-(1-(pyridin-2-yl)ethyl)-1H-pyrrolo[2,3-b]pyridin-3-yl)benzoic acid] showed an IC50 of 0.1 to 1000 nM.
